In patent publication US11090276B2, “Formulation of fat-soluble vitamin” (BASF SE, priority 2014, dated 2021):

Test: Loss of MK-7 on direct compression into tablets with calcium or magnesium excipients
Type: physicochemical
Details: directly compressed with excipients such as calcium or magnesium
From the text: However, vitamins K1 and K2 degrade when formulated in a conventional dosage form, such as a tablet, in the presence of mineral salts, in particular calcium or magnesium salts. Moreover, during formulation of the dosage form, there is a still yet further opportunity for degradation. When directly compressed along with some excipients in a tablet such as calcium or magnesium, a serious reduction in the amount of MK-7 present after tableting can be observed, such as up to 30% reduction in MK-7. As MK-7 is expensive, that is not an acceptable loss on formulation. The MK-7 degradation appears to be accelerated in the presence of calcium or magnesium. As calcium and magnesium are valuable minerals, it is desirable to be able to formulate vitamins in general and MK-7 in particular with calcium and magnesium.

Question: For CC(C)=CCC/C(C)=C/CC/C(C)=C/CC/C(C)=C/CC/C(C)=C/CC/C(C)=C/CC/C(C)=C/CC1=C(C)C(=O)c2ccccc2C1=O [MK-7], which “reduction in MK-7 after tableting” value is on record?
Answer: up to 30%
